≈ marks a conversion by molar mass, not a printed value. Like-named read-outs stand apart in the source and are kept apart here. Positions of bridges follow the written chain, without caps; N, C: chain ends. Non-standard residues stand in square brackets, D forms with d. Residues, ends and D or L forms follow the SMILES beside them. Lys(N3) = [N-]=[N+]=NCCCC[C@H](N)C(=O)O; R8 = C=CCCCCCC[C@@](C)(N)C(=O)O; Cba = N[C@@H](CC1CCC1)C(=O)O; S5 = C=CCCC[C@](C)(N)C(=O)O; Ahx = NCCCCCC(=O)O; βAla = NCCC(=O)O
Experiments:
[1] = Experimental LogD (partition coefficient); details: not stated, Partition Coeff LogD
[2] = Solubility assay (kinetic solubility, PBS pH 7); type: physicochemical; details: pH 7, aqueous buffer, kinetic from dmso stock, pH 7, PBS; read-out: Solubility
How it was run: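 Quantitation uses an external standard at 100 µM, prepared from 10 mM stock in acetonitrile:methanol:DMSO (10:80:10). Solubility (µM) = (peak area of sample ÷ peak area of standard) × standard concentration.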

in vitro = experiment: in vitro
How it was run: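 Azido-peptide permeability was read as loss of NanoBRET signal (donor 450 nm, acceptor 610 nm) after adding NanoBret618-azide at 10 μM final.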

[3] = Lactate dehydrogenase (LDH) release assay; type: cell-based
How it was run: (§1)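 LDH release, fluorometric membrane-integrity read-out; HCT116 with stable p53-responsive β-lactamase reporter; 8000 cells/well; 0.5% DMSO final; geometric mean, n≥3 biological replicates.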

HCT116 cells = experiment: Lactate dehydrogenase (LDH) release assay; type: cell-based
How it was run: as §1

[4] = Nanoclick permeability assay EC50
[5] = 0% FBS 4Hr, read-out: LDH: Cytotoxicity assay EC50

## CC(=O)N[C@@H](CCCCN=[N+]=[N-])C(=O)N[C@@H](CCCCN)C(=O)NCCCCCC(=O)N[C@H](C(=O)N[C@@H](CO)C(=O)N[C@@H](Cc1ccccc1)C(=O)N[C@]1(C)CCCCCCC=CCCC[C@@](C)(C(=O)N[C@@H](CCC(=O)O)C(=O)N[C@@H](CC(N)=O)C(=O)N[C@@H](Cc2ccccc2)C(N)=O)NC(=O)[C@H](CC(C)C)NC(=O)[C@H](CC(C)C)NC(=O)[C@H](C)NC(=O)[C@H](Cc2c[nH]c3ccccc23)NC(=O)[C@H](Cc2ccc(O)cc2)NC(=O)[C@H](CCC(=O)O)NC1=O)[C@@H](C)O [MP-084] (Ac-[Lys(N3)]K[Ahx]TSF[R8]EYWALL[S5]ENF-NH2; staple 7-14)
[1]
  logD: 2.56
[2]
  solubility kinetic: 2 µM (≈ 4.5 µg/mL)
physchem
  EPSA: 187 A^2
In vitro; [4]
  cell entry EC50: 74.5 nM
[3]; LDH: Cytotoxicity assay EC50
  EC50: > 50700 nM
HCT116 cells
  LDH: Cytotoxicity assay % Effect: 0.08783%

## CC(=O)N[C@@H](CCCCN=[N+]=[N-])C(=O)NCCC(=O)N[C@@H](CC(C)C)C(=O)N[C@@H](Cc1c[nH]cn1)C(=O)N[C@@H](Cc1ccccc1)C(=O)N[C@]1(C)CCCCCCC=CCCC[C@@](C)(C(=O)N[C@@H](CO)C(=O)N[C@@H](C)C(=O)N[C@@H](C)C(N)=O)NC(=O)[C@H](CC2CCC2)NC(=O)[C@H](CCC(N)=O)NC(=O)[C@H](C)NC(=O)[C@H](Cc2c[nH]c3ccccc23)NC(=O)[C@H](Cc2ccc(O)cc2)NC(=O)[C@H](CCC(=O)O)NC1=O [MP-174, AZIDE-ATSP-7041 (T2H)]
[1]
  logD: 2.84
physchem
  EPSA: 225 A^2
In vitro
  cell entry EC50: 50.6 nM
[3]; [5]
  EC50: > 50000 nM
HCT116 cells; 0% FBS 4Hr
  LDH: Cytotoxicity assay % Effect: 2.115%
HCT116 cells; 0% FBS 16Hr
  LDH: Cytotoxicity assay % Effect: 21.18%

## CC(=O)N[C@@H](CCCCN=[N+]=[N-])C(=O)NCCC(=O)N[C@@H](CC(C)C)C(=O)N[C@H](C(=O)N[C@@H](Cc1ccccc1)C(=O)N[C@]1(C)CCCCCCC=CCCC[C@@](C)(C(=O)N[C@@H](CO)C(=O)N[C@@H](C)C(=O)N[C@@H](C)C(N)=O)NC(=O)[C@H](CC2CCC2)NC(=O)[C@H](CCC(N)=O)NC(=O)[C@H](C)NC(=O)[C@H](Cc2c[nH]c3ccccc23)NC(=O)[C@H](Cc2ccc(O)cc2)NC(=O)[C@H](Cc2c[nH]cn2)NC1=O)[C@@H](C)O [MP-175, AZIDE-ATSP-7041 (E5H)]
[1]
  logD: 3.42
[2]
  solubility kinetic: 2 µM (≈ 3.96 µg/mL)
physchem
  EPSA: 214 A^2
In vitro
  cell entry EC50: 316 nM
[3]; [5]
  EC50: > 50000 nM
[3]; 10% FBS 4Hr, read-out: LDH: Cytotoxicity assay EC50
  EC50: > 50000 nM
HCT116 cells; 0% FBS 4Hr
  LDH: Cytotoxicity assay % Effect: 2.645%
HCT116 cells; 0% FBS 16Hr
  LDH: Cytotoxicity assay % Effect: 7.95%
HCT116 cells; 10% FBS 4Hr
  LDH: Cytotoxicity assay % Effect: -1.124%

## CC(=O)N[C@@H](CCCCN=[N+]=[N-])C(=O)NCCC(=O)N[C@@H](CC(C)C)C(=O)N[C@H](C(=O)N[C@@H](Cc1ccccc1)C(=O)N[C@]1(C)CCCCCCC=CCCC[C@@](C)(C(=O)N[C@@H](CO)C(=O)N[C@@H](C)C(=O)N[C@@H](C)C(N)=O)NC(=O)[C@H](CC2CCC2)NC(=O)[C@H](Cc2c[nH]cn2)NC(=O)[C@H](C)NC(=O)[C@H](Cc2c[nH]c3ccccc23)NC(=O)[C@H](Cc2ccc(O)cc2)NC(=O)[C@H](CCC(=O)O)NC1=O)[C@@H](C)O [MP-176, AZIDE-ATSP-7041 (Q9H)]
[1]
  logD: 2.88
[2]
  solubility kinetic: 2 µM (≈ 3.96 µg/mL)
physchem
  EPSA: 222 A^2
In vitro
  cell entry EC50: 396 nM
[3]; [5]
  EC50: > 50000 nM
HCT116 cells; 0% FBS 4Hr
  LDH: Cytotoxicity assay % Effect: 5.39%
HCT116 cells; 0% FBS 16Hr
  LDH: Cytotoxicity assay % Effect: 4.02%

## CC(=O)N[C@@H](CCCCN=[N+]=[N-])C(=O)NCCC(=O)N[C@@H](CC(C)C)C(=O)N[C@H](C(=O)N[C@@H](Cc1ccccc1)C(=O)N[C@]1(C)CCCCCCC=CCCC[C@@](C)(C(=O)N[C@@H](Cc2c[nH]cn2)C(=O)N[C@@H](C)C(=O)N[C@@H](C)C(N)=O)NC(=O)[C@H](CC2CCC2)NC(=O)[C@H](CCC(N)=O)NC(=O)[C@H](C)NC(=O)[C@H](Cc2c[nH]c3ccccc23)NC(=O)[C@H](Cc2ccc(O)cc2)NC(=O)[C@H](CCC(=O)O)NC1=O)[C@@H](C)O [MP-177, AZIDE-ATSP-7041 (S12H)] (Ac-[Lys(N3)][βAla]LTF[R8]EYWAQ[Cba][S5]HAA-NH2; staple 6-13)
[1]
  logD: 2.74
[2]
  solubility kinetic: 6.5 µM (≈ 13.1 µg/mL)
physchem
  EPSA: 227 A^2
In vitro
  cell entry EC50: 149 nM
[3]; [5]
  EC50: > 50000 nM
HCT116 cells; 0% FBS 4Hr
  LDH: Cytotoxicity assay % Effect: 4.985%

## CC(=O)N[C@@H](CCCCN=[N+]=[N-])C(=O)NCCC(=O)N[C@@H](CCCCN)C(=O)N[C@H](C(=O)N[C@@H](Cc1ccccc1)C(=O)N[C@]1(C)CCCCCCC=CCCC[C@@](C)(C(=O)N[C@@H](CO)C(=O)N[C@@H](C)C(=O)N[C@@H](C)C(N)=O)NC(=O)[C@H](CC2CCC2)NC(=O)[C@H](CCC(N)=O)NC(=O)[C@H](C)NC(=O)[C@H](Cc2c[nH]c3ccccc23)NC(=O)[C@H](Cc2ccc(O)cc2)NC(=O)[C@H](CCC(=O)O)NC1=O)[C@@H](C)O [MP-546, AZIDE-ATSP-7041 (L1K)]
[1]
  logD: 2.85
[2]
  solubility kinetic: 2 µM (≈ 3.97 µg/mL)
physchem
  EPSA: 229 A^2
In vitro
  cell entry EC50: 210 nM
[3]; [5]
  EC50: > 50000 nM
HCT116 cells; 0% FBS 4Hr
  LDH: Cytotoxicity assay % Effect: 34.42%
HCT116 cells; 0% FBS 16Hr
  LDH: Cytotoxicity assay % Effect: 13.56%

## CC(=O)N[C@@H](CCCCN=[N+]=[N-])C(=O)NCCC(=O)N[C@@H](CC(C)C)C(=O)N[C@@H](CCCCN)C(=O)N[C@@H](Cc1ccccc1)C(=O)N[C@]1(C)CCCCCCC=CCCC[C@@](C)(C(=O)N[C@@H](CO)C(=O)N[C@@H](C)C(=O)N[C@@H](C)C(N)=O)NC(=O)[C@H](CC2CCC2)NC(=O)[C@H](CCC(N)=O)NC(=O)[C@H](C)NC(=O)[C@H](Cc2c[nH]c3ccccc23)NC(=O)[C@H](Cc2ccc(O)cc2)NC(=O)[C@H](CCC(=O)O)NC1=O [MP-547, AZIDE-ATSP-7041 (T2K)]
[1]
  logD: 3.02
[2]
  solubility kinetic: 3 µM (≈ 5.99 µg/mL)
physchem
  EPSA: 229 A^2
In vitro
  cell entry EC50: 72.2 nM
[3]; [5]
  EC50: > 50000 nM
HCT116 cells; 0% FBS 4Hr
  LDH: Cytotoxicity assay % Effect: 26.9%
HCT116 cells; 0% FBS 16Hr
  LDH: Cytotoxicity assay % Effect: 15.73%

## CC(=O)N[C@@H](CCCCN=[N+]=[N-])C(=O)NCCC(=O)N[C@@H](CC(C)C)C(=O)N[C@H](C(=O)N[C@@H](Cc1ccccc1)C(=O)N[C@]1(C)CCCCCCC=CCCC[C@@](C)(C(=O)N[C@@H](CO)C(=O)N[C@@H](C)C(=O)N[C@@H](C)C(N)=O)NC(=O)[C@H](CC2CCC2)NC(=O)[C@H](CCC(N)=O)NC(=O)[C@H](C)NC(=O)[C@H](Cc2c[nH]c3ccccc23)NC(=O)[C@H](Cc2ccc(O)cc2)NC(=O)[C@H](CCCCN)NC1=O)[C@@H](C)O [MP-548, AZIDE-ATSP-7041 (E5K)]
[1]
  logD: 3.25
[2]
  solubility kinetic: 5 µM (≈ 9.85 µg/mL)
physchem
  EPSA: 213 A^2
In vitro
  cell entry EC50: 1020 nM
[3]; [5]
  EC50: 12300 nM
[3]; 4 hours, 0% serum, read-out: LDH Cytotoxicity assay EC50
  EC50: 12200 nM
HCT116 cells; 0% FBS 4Hr
  LDH: Cytotoxicity assay % Effect: 84.33%
HCT116 cells; 0% FBS 16Hr
  LDH: Cytotoxicity assay % Effect: 14.03%

## CC(=O)N[C@@H](CCCCN=[N+]=[N-])C(=O)NCCC(=O)N[C@@H](CC(C)C)C(=O)N[C@H](C(=O)N[C@@H](Cc1ccccc1)C(=O)N[C@]1(C)CCCCCCC=CCCC[C@@](C)(C(=O)N[C@@H](CO)C(=O)N[C@@H](C)C(=O)N[C@@H](C)C(N)=O)NC(=O)[C@H](CC2CCC2)NC(=O)[C@H](CCC(N)=O)NC(=O)[C@H](CCCCN)NC(=O)[C@H](Cc2c[nH]c3ccccc23)NC(=O)[C@H](Cc2ccc(O)cc2)NC(=O)[C@H](CCC(=O)O)NC1=O)[C@@H](C)O [MP-549, AZIDE-ATSP-7041 (A8K)]
[1]
  logD: 2.75
[2]
  solubility kinetic: 4.5 µM (≈ 9.12 µg/mL)
physchem
  EPSA: 220 A^2
In vitro
  cell entry EC50: 233 nM
[3]; [5]
  EC50: > 50000 nM
HCT116 cells; 0% FBS 4Hr
  LDH: Cytotoxicity assay % Effect: 7.105%
HCT116 cells; 0% FBS 16Hr
  LDH: Cytotoxicity assay % Effect: 45.26%

## CC(=O)N[C@@H](CCCCN=[N+]=[N-])C(=O)NCCC(=O)N[C@@H](CCCNC(=N)N)C(=O)N[C@@H](Cc1ccc(O)cc1)C(=O)N[C@@H](Cc1ccccc1)C(=O)N[C@]1(C)CCCCCCC=CCCC[C@@](C)(C(=O)N[C@@H](CO)C(=O)N[C@@H](C)C(=O)N[C@@H](Cc2ccccc2)C(N)=O)NC(=O)[C@H](CC2CCC2)NC(=O)[C@H](CCC(N)=O)NC(=O)[C@H](C)NC(=O)[C@H](Cc2c[nH]c3ccccc23)NC(=O)[C@H](Cc2ccc(O)cc2)NC(=O)[C@H](CCC(=O)O)NC1=O [MP-5546] (Ac-[Lys(N3)][βAla]RYF[R8]EYWAQ[Cba][S5]SAF-NH2; staple 6-13)
[1]
  logD: 3.2
[2]
  solubility kinetic: 2 µM (≈ 4.3 µg/mL)
physchem
  EPSA: 256 A^2
In vitro; [4]
  cell entry EC50: 511 nM
[3]; LDH: Cytotoxicity assay EC50
  EC50: > 50600 nM

## CC(C)C[C@@H]1NC(=O)[C@H](C)NC(=O)[C@H](Cc2c[nH]c3ccccc23)NC(=O)[C@H](Cc2ccc(O)cc2)NC(=O)[C@H](CCC(=O)O)NC(=O)[C@](C)(NC(=O)[C@H](Cc2ccccc2)NC(=O)[C@H](CO)NC(=O)[C@@H](NC(=O)[C@H](CO)NC(=O)CNC(=O)[C@H](CO)NC(=O)[C@@H](N)CCCCN=[N+]=[N-])[C@@H](C)O)CCCCCCC=CCCC[C@@](C)(C(N)=O)NC(=O)[C@H](CC(C)C)NC1=O [MP-75496]
[1]
  logD: 2.46
[2]
  solubility kinetic: 10 µM (≈ 18.1 µg/mL)
physchem
  EPSA: 236 A^2
In vitro; [4]
  cell entry EC50: 518 nM
[3]; LDH: Cytotoxicity assay EC50
  EC50: > 50600 nM
